In brackets after ≈: the same amount, converted by molar mass. Read-outs that look alike come from different tables or passages of the source.
Legend:
[1] = system: Neisseria gonorrhoeae; assay: MIC against 100 N. gonorrhoeae isolates, CLSI reference agar dilution; assay type: cell-based
[2] = system: Haemophilus influenzae; assay: In vitro antibacterial activity of Example 5 (MIC); assay type: cell-based
[3] = system: Streptococcus pneumoniae; assay: Susceptibility testing (MIC) Assay 1, broth microdilution; assay type: cell-based
[4] = system: Streptococcus pyogenes; assay: as above; assay type: cell-based; conditions: Streptococcus pyogenes, Streptococcus pyrgenes, in vivo strain; read-out: Spy MIC
[5] = system: Staphylococcus aureus; assay: as above; assay type: cell-based; conditions: Staphylococcus aureus
[6] = system: Streptococcus pyogenes; assay: In vitro antibacterial activity of Example 5 (MIC); assay type: cell-based; conditions: for MIC: Streptococcus pyogenes (isolates not further specified)
[7] = system: Clostridium difficile; assay: In vitro antibacterial activity of Example 5 against anaerobes (MIC, agar dilution); assay type: cell-based; conditions: Clostridioides difficile
[8] = system: Legionella pneumophila; assay: microbe, parasite or virus in culture; assay type: cell-based
[9] = target: Escherichia coli DNA gyrase A/B tetramer (Escherichia coli (strain K12), UniProt P0AES4+P0AES6); assay: DNA gyrase supercoiling activity fluorescence polarisation assay; assay type: biochemical; conditions: Eco Gyr FP Mean IC50, E. coli DNA gyrase supercoiling, 0.3 mM ATP
Method in brief: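 Relaxed triplex-forming plasmid (130 micrograms/mL) supercoiled by 5 nM gyrase A/B tetramer in Tris-HCl pH 7.5 buffer with 4 mM MgCl2 and 0.3 mM ATP, ~30 min, ambient temperature. Quenched with 5′-BODIPY-FL triplex probe at pH 3.5; fluorescence anisotropy read after 60 min. IC50 by nonlinear regression against two control reactions.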

[10] = system: Proteus vulgaris; assay: In vitro antibacterial activity of Example 5 (MIC); assay type: cell-based
[11] = system: Staphylococcus aureus; assay: Modal MIC against S. aureus isolates of the thigh model; assay type: cell-based
Procedure: The S. aureus strains used included a methicillin-resistant isolate obtained from the American Type Culture Collection (ATCC33591) (MRSA). In addition, three S. aureus clinical isolates were utilized; (1) a methicillin sensitive isolate (MSSA); (2) a recent methicillin-resistant clinical isolate of the USA300 genotype (USA300) and (3) a recent methicillin-resistant clinical isolate of the USA100 genotype ([…]).
The MIC against each isolate was determined using the broth microdilution method following CLSI guidelines (Rayner et al. Clinical pharmacodynamics of linezolid in seriously ill patients treated in a compassionate use program. Clin Pharmacokinet 2003. 42:1411-23). Ten individual determinations were performed for each strain and the Modal MIC was used for all PK/PD calculations.

[12] = system: Candida albicans; assay: In vitro antibacterial activity of Example 5 (MIC); assay type: cell-based; conditions: ATCC90028; Candida albicans (ATCC 90028 CLSI QC Strain)
[13] = system: Enterococcus faecium; assay: In vitro antibacterial activity of Example 5 (MIC); assay type: cell-based
[14] = azithromycin-intermediate isolates

`C[C@@H]1CN2c3c(cc4c(N5C(=O)OC[C@@H]5C)noc4c3F)CC3(C(=O)NC(=O)NC3=O)[C@H]2[C@H](C)O1` [Example 5, (2R,4S,4aS)-11-Fluoro-2,4-dimethyl-8-[(4S)-4-methyl-2-oxo-1,3-oxazolidin-3-yl]-1,2,4,4a-tetrahydro-2′H,6H-spiro[1,4-oxazino[4,3-a][1,2]oxazolo[4,5-g]quinoline-5,5′-pyrimidine]-2′,4′,6′(1′H,3′H)-trione] was tested, and the MIC ([1]; Neisseria gonorrhoeae, ATCC49226, QC strain N. gonorrhoeae ATCC 49226, read-out: MIC) was 0.06 µg/mL (≈ 0.123 µM), the MIC ([1]; Neisseria gonorrhoeae, all 100 N. gonorrhoeae isolates tested, read-out: MIC values) was no more than 0.25 µg/mL and the MIC90 ([1]; Neisseria gonorrhoeae, azithromycin-intermediate isolates, read-out: MIC90) was 0.12 µg/mL (≈ 0.246 µM). It also gave an MIC ([1]; Neisseria gonorrhoeae, azithromycin-susceptible and -intermediate isolates, read-out: modal MIC) of 0.06 µg/mL (≈ 0.123 µM), an MIC90 ([1]; Neisseria gonorrhoeae, azithromycin-susceptible isolates, read-out: MIC90) of 0.06 µg/mL (≈ 0.123 µM) and an MIC90 ([1]; Neisseria gonorrhoeae, ciprofloxacin-intermediate and -resistant strains, read-out: MIC90) of 0.12 µg/mL (≈ 0.246 µM). The MIC ([1]; Neisseria gonorrhoeae, ciprofloxacin-intermediate and -resistant strains, read-out: modal MIC) was 0.06 µg/mL (≈ 0.123 µM), the MIC90 ([1]; Neisseria gonorrhoeae, non-susceptible phenotypes, read-out: MIC90) was 0.06 to 0.12 µg/mL (≈ 0.123 to 0.246 µM) and the MIC ([1]; Neisseria gonorrhoeae, penicillin-intermediate and -resistant strains, read-out: modal MIC) was 0.06 µg/mL (≈ 0.123 µM). For the same compound, the MIC90 ([1]; Neisseria gonorrhoeae, penicillin-intermediate strains, read-out: MIC90) was 0.06 µg/mL (≈ 0.123 µM), the MIC90 ([1]; Neisseria gonorrhoeae, penicillin-resistant strains, read-out: MIC90) was 0.12 µg/mL (≈ 0.246 µM) and the MIC90 ([1]; Neisseria gonorrhoeae, susceptible phenotypes (ciprofloxacin-, tetracycline- and azithromycin-susceptible), read-out: MIC90) was 0.06 µg/mL (≈ 0.123 µM). For the same compound, the MIC ([1]; Neisseria gonorrhoeae, tetracycline-intermediate and -resistant strains, read-out: modal MIC) was 0.06 µg/mL (≈ 0.123 µM), the MIC90 ([1]; Neisseria gonorrhoeae, tetracycline-intermediate strains, read-out: MIC90) was 0.06 µg/mL (≈ 0.123 µM) and the MIC90 ([1]; Neisseria gonorrhoeae, tetracycline-resistant strains, read-out: MIC90) was 0.12 µg/mL (≈ 0.246 µM). The MIC ([1]; Neisseria gonorrhoeae, various subsets of isolates including those non-susceptible to comparator agents, read-out: modal MIC) was 0.06 µg/mL (≈ 0.123 µM), the MIC50 ([1]; Neisseria gonorrhoeae, all 100 N. gonorrhoeae isolates, read-out: MIC50) was 0.06 µg/mL (≈ 0.123 µM) and the MIC90 ([1]; Neisseria gonorrhoeae, all 100 N. gonorrhoeae isolates, read-out: MIC90) was 0.125 µg/mL (≈ 0.256 µM). The MIC ([1]; QC strain N. gonorrhoeae ATCC 49226) was 0.12 µg/mL (≈ 0.246 µM), the MIC90 ([1]; all 100 N. gonorrhoeae isolates) was 0.12 µg/mL (≈ 0.246 µM) and the MIC50 [1, 14] was 0.06 µg/mL (≈ 0.123 µM). The “isolates at 0.06 μg/mL” value [1, 14] was 66.7%, the MIC50 ([1]; azithromycin-susceptible isolates) was 0.06 µg/mL (≈ 0.123 µM) and the MIC50 ([1]; ciprofloxacin-intermediate and -resistant strains) was 0.06 µg/mL (≈ 0.123 µM). The MIC50 ([1]; penicillin-intermediate strains) was 0.06 µg/mL (≈ 0.123 µM), the MIC50 ([1]; penicillin-resistant strains) was 0.06 µg/mL (≈ 0.123 µM) and the “isolates at ≦0.06 μg/mL” value ([1]; penicillin-resistant strains) was 85.7%. The MIC50 ([1]; tetracycline-intermediate strains) was 0.06 µg/mL (≈ 0.123 µM), the MIC50 ([1]; tetracycline-resistant strains) was 0.06 µg/mL (≈ 0.123 µM) and the “isolates at 0.06 μg/mL” value ([1]; tetracycline-resistant strains) was 66.7%. For the same compound, the MIC ([2]; ATCC49619, Haemophilus influenzae (ATCC 49619 CLSI QC Strain)) was 0.25 µg/mL (≈ 0.513 µM), the MIC90 ([2]; Haemophilus influenzae, n=29) was 1 µg/mL (≈ 2.05 µM) and the MIC range ([2]; Haemophilus influenzae, n=29) was 0.125 to 1 µg/mL. The MIC ([3]; in vivo strain (footnote b), read-out: Spn(b) MIC) was 0.39 µM (≈ 0.19 µg/mL), the MIC ([3]; in vivo strain (footnote c), read-out: Spn(c) MIC) was 0.46 µM (≈ 0.224 µg/mL) and the MIC [4] was 0.36 µM (≈ 0.175 µg/mL). For the same compound, the MIC ([5]; Staphylococcus aureus in vivo strain, MSQS, read-out: Sau(d) MIC) was 0.36 µM (≈ 0.175 µg/mL), the MIC ([5]; in vivo strain, MRQR, read-out: Sau(e) MIC) was 0.78 µM (≈ 0.38 µg/mL) and the MIC ([5]; serum, read-out: Sau(f) MIC) was 0.71 µM (≈ 0.346 µg/mL). It also gave an MIC [6] of 0.25 µg/mL (≈ 0.513 µM), an MIC ([6]; Streptococcus pyogenes, read-out: MIC) of 0.125 µg/mL (≈ 0.256 µM) and an MIC90 ([6]; Streptococcus pyogenes, 100 strains of S. pyogenes) of 0.25 µg/mL (≈ 0.513 µM). It also gave an MIC50 ([6]; Streptococcus pyogenes, 100 strains of S. pyogenes, read-out: MIC50 (MICH [sic])) of 0.125 µg/mL (≈ 0.256 µM), an MIC ([7]; ATCC70057, Clostridium difficile (ATCC 70057, CLSI QC Strain)) of 0.125 µg/mL (≈ 0.256 µM) and an MIC ([7]; Clostridium difficile) of 0.125 µg/mL (≈ 0.256 µM). It also gave an MIC90 [8] of 0.06 µg/mL (≈ 0.123 µM), an MIC range ([8]; n=11) of 8 to 60 ng/mL and an IC50 [9] of 169 nM. For the same compound, the MIC [10] was 32 µg/mL (≈ 65.6 µM), the MIC ([11]; ATCC 33591 / MRSA, S. aureus MRSA (ATCC33591)) was 0.125 µg/mL (≈ 0.256 µM) and the MIC ([11]; S. aureus MSSA clinical isolate) was 0.0625 µg/mL (≈ 0.128 µM). It also gave an MIC ([11]; S. aureus USA100 clinical isolate) of 0.125 µg/mL (≈ 0.256 µM), an MIC ([11]; S. aureus USA300 clinical isolate) of 0.25 µg/mL (≈ 0.513 µM) and an MIC [12] greater than 64 µg/mL. It also gave an MIC [13] of 16 µg/mL (≈ 32.8 µM), an MIC90 ([13]; E. faecium) of 16 µg/mL (≈ 32.8 µM) and an MIC ([13]; Enterococcus faecium (Vancomycin-R, fluoroquinolone-R)) of 8 µg/mL (≈ 16.4 µM).
